The source made the active and inactive calls. The calls are words filed in the database; no cut-off is given here.
What was measured:
MCF7 [1] = assay: Antiproliferative activity against human MCF7 cells assessed as reduction in cell viability incubated for 48 hrs by MTT assay; type: functional, cell-based; conditions: MCF7, 48 h
NCI/ADR-RES [2] = assay: Antiproliferative activity against human multidrug resistant NCI-ADR-RES cells overexpressing P-gp assessed as reduction in cell viability incubated for 48 hrs by MTT assay; type: functional, cell-based
[3] = Cytotoxicity against human HEK293T cells assessed as reduction in cell viability incubated for 48 hrs by MTT assay; type: toxicity, cell-based, HEK-293T
NCI/ADR-RES [4] = assay: Reversal fold, ratio of doxorubicin IC50 to doxorubicin IC50 in presence of 10 uM test compound for reversal of P-gp-mediated multidrug resistance in human NCI-ADR-RES cells incubated for 48 hrs by MTT assay; type: functional
MCF7 [5] = assay: Antiproliferative activity against human MCF7 cells assessed as inhibition of cell growth at 50 uM incubated for 48 hrs by MTT assay; type: functional, cell-based
NCI/ADR-RES [6] = assay: Antiproliferative activity against human multidrug resistant NCI-ADR-RES cells assessed as inhibition of cell growth at 50 uM incubated for 48 hrs by MTT assay; type: functional, cell-based
A549 = assay: Antiproliferative activity against human A549 cells assessed as inhibition of cell growth at 50 uM incubated for 48 hrs by MTT assay; type: functional, cell-based
A549/TR = assay: Antiproliferative activity against human Taxol resistant A549 cells assessed as inhibition of cell growth at 50 uM incubated for 48 hrs by MTT assay; type: functional, cell-based
HCT-8 [7] = assay: Antiproliferative activity against human HCT-8 cells assessed as inhibition of cell growth at 50 uM incubated for 48 hrs by MTT assay; type: functional, cell-based
HCT-8 [8] = assay: Antiproliferative activity against human Taxol resistant HCT-8 cells assessed as inhibition of cell growth at 50 uM incubated for 48 hrs by MTT assay; type: functional, cell-based
NCI/ADR-RES [9] = assay: Reversal of P-gp-mediated multidrug resistance in human NCI-ADR-RES cells assessed as potentiation of doxorubicin-induced cytotoxicity incubated for 48 hrs by MTT assay; type: functional, cell-based
HEK-293T [10] = assay: Cytotoxicity against human HEK293T cells assessed as cell survival rate at 10 uM incubated for 48 hrs by MTT assay; type: toxicity, cell-based
HEK-293T [11] = assay: Cytotoxicity against human HEK293T cells assessed as inhibition of cell growth at 50 uM incubated for 48 hrs by MTT assay; type: toxicity, cell-based
[12] = Cytotoxicity against mouse MPC-5 cells assessed as inhibition of cell growth at 50 uM incubated for 48 hrs by MTT assay; type: toxicity, cell-based; conditions: mpc-5, 48 h
L02 = assay: Cytotoxicity against human L02 cells assessed as inhibition of cell growth at 50 uM incubated for 48 hrs by MTT assay; type: toxicity, cell-based; conditions: l02, 48 h
P-gp = assay: Therapeutic index, ratio of IC50 for cytotoxicity against human HEK293T cells to EC50 for reversal of P-gp-mediated multidrug resistance in human NCI-ADR-RES cells; type: toxicity, cell-based; conditions: read-out: Ratio IC50/EC50

SMILES | IC50 (MCF7 [1]; read-out: IC50) | IC50 (NCI/ADR-RES [2]) | IC50 at 48 h [3] | Ratio IC50 (NCI/ADR-RES [4]) | further results
C=C1[C@H](O)[C@@H](OC(=O)C(C)(C)C)[C@@H](O)C(C)(C)/C=C/[C@H](C)[C@H](OC(=O)c2ccccc2)[C@@]2(O)C[C@@](C)(O)[C@H](OC(C)=O)[C@@H]2[C@H]1OCC(C)C | 69.9 µM | > 100 µM | 31.7 µM | 0.91 | 
C=C1[C@H](O)[C@@H](OC(=O)c2cccc(C)c2)[C@@H](O)C(C)(C)/C=C/[C@H](C)[C@H](OC(=O)c2ccccc2)[C@@]2(O)C[C@@](C)(O)[C@H](OC(C)=O)[C@@H]2[C@H]1OCC(C)C | 63.8 µM | 75.2 µM | 31.3 µM | 7.66 | 
CC(=O)O[C@@H]1[C@@H]2[C@@H](OCC(C)C)C3(CO3)[C@H](O)[C@@H](O)[C@@H](O)C(C)(C)/C=C/[C@H](C)[C@H](OC(=O)c3ccccc3)[C@@]2(O)C[C@@]1(C)O (stereo partly drawn) | > 100 µM | > 100 µM | > 100 µM |  | 
C=C1[C@H](OCC(C)C)[C@@H](OC(C)=O)[C@@H](OC(C)=O)C(C)(C)[C@@H]2O[C@H]2[C@H](C)[C@H](OC(=O)c2ccccc2)[C@@]2(O)C[C@@](C)(OC(C)=O)[C@H](OC(C)=O)[C@@H]2[C@H]1OCC(C)C | > 100 µM | > 100 µM | 48.1 µM | 52.31 | 
C=C1[C@H](O)[C@@H](O)[C@@H](O)C(C)(C)/C=C/[C@H](C)[C@H](OC(=O)c2ccccc2)[C@@]2(O)C[C@@](C)(O)[C@H](OC(C)=O)[C@@H]2[C@H]1OCC(C)C | > 100 µM | > 100 µM | > 100 µM |  | 
C=C1[C@H](OC(=O)c2cccc(C)c2)[C@@H](O)[C@@H](O)C(C)(C)/C=C/[C@H](C)[C@H](OC(=O)c2ccccc2)[C@@]2(O)C[C@@](C)(O)[C@H](OC(C)=O)[C@@H]2[C@H]1OCC(C)C | 21.6 µM | 33.6 µM | 12 µM | 8.85 | 
COc1ccc(CCN(C)CCCC(C#N)(c2ccc(OC)c(OC)c2)C(C)C)cc1OC (stereo not drawn) |  | > 100 µM | 32 µM |  | IC50 (MCF7 [1]): 87.8 µM; Activity (MCF7 [5]): inactive; Activity (NCI/ADR-RES [6]): inactive; Activity (A549): inactive; Activity (A549/TR): inactive; Activity (HCT-8 [7]): inactive; Activity (HCT-8 [8]): inactive; EC50 (NCI/ADR-RES [9]): 0.322 µM
C=C1[C@H](OCC(C)C)C2=C(C[C@@](C)(OC(C)=O)[C@@H]2OC(C)=O)[C@@H](OC(=O)c2ccccc2)[C@@H](C)/C=C/C(C)(C)[C@H](OC(C)=O)[C@H](OC(C)=O)[C@H]1OCC(C)C | > 100 µM | > 100 µM | > 100 µM | 15.81 | 
COc1cc2c(cc1OC)CN(CCc1ccc(NC(=O)c3cc(OC)c(OC)cc3NC(=O)c3cnc4ccccc4c3)cc1)CC2 | 8.11 µM | 98.5 µM | 5.22 µM | 47.2 | Activity (HEK-293T [10]): Toxic; Activity (MCF7 [5]): Active; Activity (NCI/ADR-RES [6]): Active; Activity (A549): Active; Activity (A549/TR): Active; Activity (HCT-8 [7]): Active; Activity (HCT-8 [8]): Active; Activity (HEK-293T [11]): Toxic; Activity [12]: Toxic; Activity (L02): Toxic; EC50 (NCI/ADR-RES [9]): 0.0187 µM; selectivity ratio (P-gp): 278
C=C1[C@H](OC(C)=O)[C@@H](OC(=O)c2cccc(C)c2)[C@@H](OC(C)=O)C(C)(C)/C=C/[C@H](C)[C@H](OC(=O)c2ccccc2)[C@@]2(O)C[C@@](C)(OC(C)=O)[C@H](OC(C)=O)[C@@H]2[C@H]1OCC(C)C | > 100 µM | > 100 µM | 7.6 µM | 30.48 | 

The next lines start with results.

IC50 (MCF7 [1]; read-out: IC50) | SMILES | IC50 (NCI/ADR-RES [2]) | IC50 at 48 h [3] | Ratio IC50 (NCI/ADR-RES [4]) | further results
> 100 µM | C=C1[C@H](OC(C)=O)[C@@H](OC(C)=O)[C@@H](OC(C)=O)C(C)(C)/C=C/[C@H](C)[C@H](OC(=O)c2ccccc2)[C@@]2(O)C[C@@](C)(OC(=O)c3cccc(C)c3)[C@H](OC(C)=O)[C@@H]2[C@H]1OCC(C)C | > 100 µM | 7.22 µM | 38.74 | 
> 100 µM | C=C1[C@H](OCC(C)C)[C@@H](OC(C)=O)[C@@H](OC(C)=O)C(C)(C)/C=C/[C@H](C)[C@H](OC(=O)c2ccccc2)[C@@]2(O)C[C@@](C)(OC(C)=O)[C@H](OC(C)=O)[C@@H]2[C@H]1OCC(C)C | > 100 µM | > 100 µM | 10.64 | 
> 100 µM | C=C1[C@H](OC(C)=O)[C@@H](OC(C)=O)[C@@H](OC(C)=O)C(C)(C)/C=C/[C@H](C)[C@H](OC(=O)c2ccccc2)[C@@]2(O)C[C@@](C)(OC(=O)c3ccncc3)[C@H](OC(C)=O)[C@@H]2[C@H]1OCC(C)C | > 100 µM | 19.5 µM | 89.33 | 
> 100 µM | C=C1[C@H](OC(C)=O)[C@@H](OC(C)=O)[C@@H](OC(C)=O)C(C)(C)/C=C/[C@H](C)[C@H]2O[C@]3(C)C[C@@]2(OC(=O)c2ccccc2)[C@H]([C@H]3OC(C)=O)[C@H]1OCC(C)C | > 100 µM | 13.5 µM | 34.3 | 
23.4 µM | C=C1[C@H](OC(C)=O)[C@@H](OC(=O)c2cccc(C)c2)[C@@H](OC(C)=O)C(C)(C)/C=C/[C@H](C)[C@H](OC(=O)c2ccccc2)[C@@]2(O)C[C@@](C)(O)[C@H](OC(C)=O)[C@@H]2[C@H]1OCC(C)C | > 100 µM | 4.11 µM | 59.71 | 
> 100 µM | C=C1[C@H](OC(C)=O)[C@@H](OC(=O)C(C)(C)C)[C@@H](OC(C)=O)C(C)(C)/C=C/[C@H](C)[C@H](OC(=O)c2ccccc2)[C@@]2(O)C[C@@](C)(O)[C@H](OC(C)=O)[C@@H]2[C@H]1OCC(C)C | > 100 µM | 52.1 µM | 47.77 | 
> 100 µM | C=C1[C@H](OC(C)=O)[C@@H](OC(=O)c2cccc(C)c2)[C@@H](OC(C)=O)C(C)(C)/C=C/[C@H](C)[C@H]2O[C@]3(C)C[C@@]2(OC(=O)c2ccccc2)[C@H]([C@H]3OC(C)=O)[C@H]1OCC(C)C | > 100 µM | > 100 µM | 8.9 | 
> 100 µM | C=C1[C@H](OC(C)=O)[C@@H](OC(=O)C(C)(C)C)[C@@H](OC(C)=O)C(C)(C)/C=C/[C@H](C)[C@H](OC(=O)c2ccccc2)[C@@]2(O)C[C@@](C)(OC(C)=O)[C@H](OC(C)=O)[C@@H]2[C@H]1OCC(C)C | > 100 µM | 18.9 µM | 33.78 | 
> 100 µM | C=C1[C@H](OC(C)=O)[C@@H](OC(C)=O)[C@@H](OC(C)=O)C(C)(C)/C=C/[C@H](C)[C@H](OC(=O)c2ccccc2)[C@@]2(O)C[C@@](C)(O)[C@H](OC(C)=O)[C@@H]2[C@H]1OCC(C)C | > 100 µM | 39.3 µM | 4.49 | 
> 100 µM | C=C1[C@H](OC(C)=O)[C@@H](OC(C)=O)[C@@H](O)C(C)(C)/C=C/[C@H](C)[C@H](OC(=O)c2ccccc2)[C@@]2(O)C[C@@](C)(O)[C@H](OC(C)=O)[C@@H]2[C@H]1OCC(C)C | > 100 µM | > 100 µM |  | 
> 100 µM | C=C1[C@H](OC(C)=O)[C@@H](OC(=O)C(C)(C)C)[C@@H](OC(C)=O)C(C)(C)/C=C/[C@H](C)[C@H]2O[C@]3(C)C[C@@]2(OC(=O)c2ccccc2)[C@H]([C@H]3OC(C)=O)[C@H]1OCC(C)C | > 100 µM | > 100 µM | 21.3 | 
74.3 µM | C=C1[C@H](OC(C)=O)[C@@H](OC(C)=O)[C@@H](OC(C)=O)C(C)(C)/C=C/[C@H](C)[C@H](OC(=O)c2ccccc2)[C@@]2(O)C[C@@](C)(OC(C)=O)[C@H](OC(C)=O)[C@@H]2[C@H]1OCC(C)C | > 100 µM | 26.1 µM | 12.16 | 
